The values that follow come from ChEMBL document CHEMBL5727087, “Inhibitors of lysine gingipain” (2018).

Structures are written as SMILES. Where only a bound is given, the exact number is not on record here.

The assay in a line: Inhibition Assay: The specific assay conditions were as follows. Buffer: pH=7.5, 100 mM Tris-HCl, 75 mM NaCl, 2.5 mM CaCl2, 10 mM cysteine, 1% DMSO after all additions. Protein: 0.1 nM Kgp, isolated from culture of Porphyromonas gingivalis, as described in Pike et al. J. Biol. Chem. 1994, 269(1), 406, and Potempa and Nguyen. Current Protocols in Protein Scienc. 2007, 21.20.1-21.20.27. Fluorogenic substrate: 10 uM Z-His-Glu-Lys-MCA. Time=90 minutes. Temperature=37° C. Each compound: 10 concentrations, starting at either 100 uM or 100 nM, with lower concentrations generated by serial 3-fold dilutions. By testing a range of concentrations for each compound, the concentration required to inhibit the activity of lysine gingipain by 50% (the “IC50”) was determined. Under the described assay conditions, signal-to-noise was excellent, and Z factor was greater than 0.6.

With `NCCCC[C@H](NC(=O)C1CCCC1)C(=O)COc1c(F)c(F)cc(F)c1F`, the IC50 (in general, the midpoint of a concentration-inhibition curve) was below 1 nM.
